Key:
[1] = tested on: CD4; chemokine receptors; test: CD4 expression and antibody-mediated internalization of chemokine receptors; type: cell-based; details: treatment of the virus or cells
[2] = tested on: CD4+ HIV-susceptible target cells; test: Depletion of total cellular cholesterol by 2-OH-β-CD treatment; type: cell-based; details: 10 to 20 mM for 1 hour at 37° C., then washing
From the text: The role of lipid rafts in the HIV-1 fusion process was examined by treating CD4+ HIV-susceptible target cells with 2-OH-β-CD to deplete membrane cholesterol and disperse lipid rafts.

[3] = tested on: HIV-1; test: HIV-1-mediated syncytium formation; type: cell-based; details: treatment of target cells
[4] = tested on: HIV-1; test: HIV-1 binding to cells; type: cell-based; details: treatment of the virus or cells
From the text: (§1) As described above, budding of HIV-1 particles occurs at lipid rafts, which are characterized by a distinct lipid composition that includes high concentrations of cholesterol, sphingolipids, and glycolipids. Since cholesterol plays a key role in the entry of some other viruses, the role in HIV-1 entry of cholesterol and lipid rafts in the plasma membrane of susceptible cells was investigated. […] A β-CD derivative, 2-hydroxypropyl-β-cyclodextrin (2-OH-β-CD), was used to deplete cellular cholesterol and disperse lipid rafts. As disclosed herein, removal of cellular cholesterol rendered primary cells and cell lines highly resistant to HIV-1-mediated syncytium formation and to infection by both CXCR4- and CCR5-specific strains of HIV-1 virus. […] Cholesterol depletion also made cells resistant to SDF-1-induced binding to ICAM-1 through LFA-1.

[5] = tested on: treated cells
[6] = tested on: HIV-1; test: Capture of HIV-1 by MAbs against host and viral proteins, measured as percentage of total p24; type: cell-based
From the text: By removing cholesterol, 2-OH-β-CD is believed to partially perturb organized lipid rafts, resulting in dispersal of their components (Ilangumaran and Hoessli, Biochem. J. 335:433-440, 1998).

[7] = tested on: HIV-1; test: Infection of primary cells and cell lines by HIV-1 strains; type: cell-based; details: primary cells and cell lines treated
[8] = tested on: Jurkat cells
[9] = tested on: LFA-1; test: SDF-1-induced binding of cells to ICAM-1 through LFA-1; type: cell-based; details: cholesterol-depleted cells
From the text: as §1

[10] = after treating cells, percentage of total p24

## 2-hydroxypropyl-β-cyclodextrin [2-OH-β-CD]
[1]
  CD4 expression: no effect
  antibody-mediated internalization of chemokine receptors: highly sensitive
[2]
  depletion of total cellular cholesterol: greater than 70%
[3]
  syncytium formation of primary cells and cell lines: blocked syncytium formation
[4]
  HIV-1 binding: partially reduced
[5]
  cell growth after treatment: continued to grow normally
[6]; after treating cells
  CD45 capture of HIV-1: remained unaffected
[6]; [10]
  capture of HIV-1 by MAb against CD59: decreased substantially
  capture of HIV-1 by MAb against gp41: decreased substantially
[6]; after treatment
  overall cellular release of p24: increased
[7]
  infection by CXCR4-specific and CCR5-specific HIV-1 strains: rendered resistant
[8]
  Ca2+ flux responses to anti-CD3 MAb: still showed Ca^2+ flux responses
[9]
  SDF-1-induced binding to ICAM-1 through LFA-1: resistant

— patent publication US20080213863A1, “Method of Controlling Viral Outbreak” (priority 2003, published 2008)
